Reference: patent US20240060146A1, “CHEMICAL SUBSTANCE EVALUATION SYSTEM USING MULTICOLOR LIGHT-EMITTING CELLS” (TOHOKU UNIVERSITY, priority 2020, published 2024)

How the values were obtained:
Type in all cases: cell-based
2H4 cells [1] = experiment: IL-2 Luc LTT: evaluation of chemical substance in 2H4 cells; conditions: 1 h chemical, then 25 nM PMA and 1 μM ionomycin 24 h, class from Min % suppression (nIL2LA) and Min Inh-GAPLA
Method: (§1) 2H4 cells were established from Jurkat cells according to the method described in PTL 1. First, for the preparation of 2H4 cells, a plasmid having SLG introduced downstream of the IL-2 promoter, a plasmid having SLR introduced downstream of the G3PDH promoter, and a plasmid having SLO introduced downstream of the INF-γ promoter were prepared as internal standards. These plasmids contained a resistance gene for hygromycin B, puromycin, and neomycin downstream of SLG, SLR, and SLO, respectively. The conditions for drug selection after transfection of the host Jurkat cells were as follows: in the primary selection, the cells were cultured for 1 week in the presence of a drug. In the secondary selection culture, the cells that survived in the primary selection culture were seeded in a 96-well plate at 1 cell/well or 200 cells/well, and cultured for 2 weeks under the same drug conditions. After the secondary selection culture, the cells were subjected to clone selection from the two points of signal intensity and signal induction by drug treatment. The G3PDH promoter SLR was first introduced to establish monochromatic stable cell line Jurkat: G3PDH-SLR #14D1 cells. These cells were used as the parent cell line to introduce the INF-γ promoter SLO, thereby establishing bichromatic stable cell line Jurkat: INFγ-SLO/G3PDH-SLR #2B12 cells. Subsequently, the obtained cells were used as a parent cell line to introduce the IL-2 promoter SLG, thereby establishing trichromatic stable cell line Jurkat IL-2-SLG/INFγ-SLO/G3PDH-SLR #2H4 cells.
The chemical substances listed in Table 1 were evaluated using 2H4 cells. 2H4 cells were seeded in a 96-well plate at 1×10^4/well and treated with each chemical substance for 1 hour, followed by incubating the cells with 25 nM PMA and 1 μM ionomycin for 24 hours. After 24 hours from the treatment with PMA and ionomycin, Tripluck Assay Reagent (manufactured by Toyobo Co., Ltd.) was added, and the amount of luminescence was measured with a Phelios microplate luminometer (manufactured by Atto Corporation). For control, 2H4 cells untreated with a chemical substance were also examined in the same manner. The amount of luminescence of SLG luciferase activity (IL2LA), SLR luciferase activity (GAPLA), and SLO luciferase activity (IFNLA) was measured, and IL-2LA and IFNLA were each normalized by GAPLA and determined to be nIL2LA and nIFNLA, respectively. Thereafter, for the concentration of each chemical substance, “% suppression” and “Inh-GAPLA” were determined according to the following formulas (1) and (2), and the chemical substances were evaluated by using their minimum value (Min % suppression, Min Inh-GAPLA).
In the evaluation, for control, PMA/ionomycin-treated 2H4 cells and PMA/ionomycin-untreated 2H4 cells were also measured for nIL2LA.
(§2) % suppression={(nIL2LA in 2H4 cells untreated with a chemical substance)−(nIL2LA in 2H4 cells treated with a chemical substance)}×100/(nIL2LA in 2H4 cells untreated with a chemical substance) ---(1) Inh-GAPLA=(GAPLA in 2H4 cells treated with a chemical substance)/(GAPLA in 2H4 cells untreated with a chemical substance) ---(2)

2H4 cells [2] = experiment: IL-2 Luc assay: evaluation of chemical substance in 2H4 cells; conditions: 1 h chemical, then PMA/ionomycin, luminescence after six hours, class from Min % suppression of nIL2LA
Method: as §1, §2
The chemical substances listed in Table 1 were evaluated using 2H4 cells. 2H4 cells were seeded in a 96-well plate at 2×10^5 cells/50 μl/well and treated with each chemical substance for 1 hour, followed by incubating the cells with 25 nM PMA and 1 µM ionomycin […]. After six hours from the treatment with PMA and ionomycin, Tripluc: Assay Reagent (manufactured by Toyobo Co., Ltd.) was added, and the amount of luminescence was measured with a Phelios microplate luminometer (manufactured by Atto Corporation). For control, 2H4 cells untreated with a chemical substance were also examined in the same manner. The amount of luminescence of SLG luciferase activity (IL2LA), SLR luciferase activity (GAPLA), and SLO luciferase activity (IFNLA) was measured, and IL-2LA and IFNLA were each normalized by GAPLA and determined to be nIL2LA and nIFNLA, respectively. Thereafter, for the concentration of each chemical substance, the value of suppression was calculated according to formula (1) above, and the chemical substances were evaluated by using their minimum value (Min suppression).

2H4 cells [3] = experiment: Evaluation of combination of IL-2 Luc LTT and IL-2 Luc assay; design: key: Positive (Pos): If the result is either LCT in the IL-2 Luc LTT or S in the IL-2 Luc assay, or both, the chemical substance is determined to be an immunosuppressive substance.; Negative (Neg): In the case other than the above, the chemical substance is determined to be a non-immunosuppressive substance; conditions: LCT in IL-2 Luc LTT or S in IL-2 Luc assay = Pos
Method: Positive (Pos): If the result is either LCT in the IL-2 Luc LTT or S in the IL-2 Luc assay, or both, the chemical substance is determined to be an immunosuppressive substance. Negative (Neg): In the case other than the above, the chemical substance is determined to be a non-immunosuppressive substance.

Compound | IL-2 Luc LTT (2H4 cells [1]) | IL-2 Luc Assay (2H4 cells [2]) | Evaluation of Combination (2H4 cells [3])
O=c1[nH]cc(F)c(=O)[nH]1 [5-Fluorouracil] | LCT (Min % suppression ≤−35 and Min Inh-GAPLA <0.7: Leukocyte toxic (denoted as “LCT”; determined to have cell growth inhibition action and/or metabolic activity inhibition action)) | N (−35<Min % suppression <35: No Effect (denoted as “N”; determined to not affect immunity)) | Pos
S=c1nc[nH]c2nc[nH]c12 [6-Mercaptoprine] | NLCT | N (−35<Min % suppression <35: No Effect (denoted as “N”; determined to not affect immunity)) | Neg
Nc1nc2nc[nH]c2c(=S)[nH]1 [6-Thioguanine] | LCT (Min % suppression ≤−35 and Min Inh-GAPLA <0.7: Leukocyte toxic (denoted as “LCT”; determined to have cell growth inhibition action and/or metabolic activity inhibition action)) | N (−35<Min % suppression <35: No Effect (denoted as “N”; determined to not affect immunity)) | Pos
CC(=O)Nc1ccc(O)cc1 [Acetaminophen (AA), Acetaminophen] | – | A (Min suppression ≤−35: Augmentation (denoted as “A”; determined to have immunoaugmenting action)) | Pos
Nc1nc2c(ncn2COCCO)c(=O)[nH]1 [Acyclovir] | I (−35<Min % suppression <35 and 0.7≤Min Inh-GAPLA: Inconclusive (denoted as “I”; possibly not measurable due to low water solubility)) | N (−35<Min % suppression <35: No Effect (denoted as “N”; determined to not affect immunity)) | Neg
Cn1cnc([N+](=O)[O-])c1Sc1ncnc2nc[nH]c12 [Azathioprine (AZ), Azathioprine] | NLCT | S (Min %; suppression ≥35: Suppression (denoted as “S”; determined to have immunosuppressive action)) | Pos
CS(=O)(=O)OCCCCOS(C)(=O)=O [Busulfan] | I (−35<Min % suppression <35 and 0.7≤Min Inh-GAPLA: Inconclusive (denoted as “I”; possibly not measurable due to low water solubility)) | N (−35<Min % suppression <35: No Effect (denoted as “N”; determined to not affect immunity)) | Neg
O=NN(CCCl)C(=O)NCCCl [Carmustine] | NLCT | S (Min %; suppression ≥35: Suppression (denoted as “S”; determined to have immunosuppressive action)) | Pos
CCN(CC)CCCC(C)Nc1ccnc2cc(Cl)ccc12 (centres unmarked) [Chloroquine (CQ), Chloroquine] | NLCT | S (Min %; suppression ≥35: Suppression (denoted as “S”; determined to have immunosuppressive action)) | Pos
NS(=O)(=O)c1cc2c(cc1Cl)N=CNS2(=O)=O [Chlorothiazide] | NLCT | N (−35<Min % suppression <35: No Effect (denoted as “N”; determined to not affect immunity)) | Neg
COc1cc2c(c(OC)c1OC)-c1ccc(OC)c(=O)cc1[C@@H](NC(C)=O)CC2 [Colchicine] | LCT (Min % suppression ≤−35 and Min Inh-GAPLA <0.7: Leukocyte toxic (denoted as “LCT”; determined to have cell growth inhibition action and/or metabolic activity inhibition action)) | S (Min %; suppression ≥35: Suppression (denoted as “S”; determined to have immunosuppressive action)) | Pos
Nc1ccn([C@@H]2O[C@H](CO)[C@@H](O)[C@@H]2O)c(=O)n1 [Cytarabine] | LCT (Min % suppression ≤−35 and Min Inh-GAPLA <0.7: Leukocyte toxic (denoted as “LCT”; determined to have cell growth inhibition action and/or metabolic activity inhibition action)) | N (−35<Min % suppression <35: No Effect (denoted as “N”; determined to not affect immunity)) | Pos
C[C@@H]1C[C@H]2[C@@H]3CCC4=CC(=O)C=C[C@]4(C)[C@@]3(F)[C@@H](O)C[C@]2(C)[C@@]1(O)C(=O)CO [Dexamethasone (Dex), Dexamethasone] | NLCT | N (−35<Min % suppression <35: No Effect (denoted as “N”; determined to not affect immunity)) | Neg
C[C@H]1O[C@@H](O[C@H]2[C@@H](O)C[C@H](O[C@H]3[C@@H](O)C[C@H](O[C@H]4CC[C@@]5(C)[C@H](CC[C@@H]6[C@@H]5C[C@@H](O)[C@]5(C)[C@@H](C7=CC(=O)OC7)CC[C@]65O)C4)O[C@@H]3C)O[C@@H]2C)C[C@H](O)[C@@H]1O [Digoxin] | NLCT | S (Min %; suppression ≥35: Suppression (denoted as “S”; determined to have immunosuppressive action)) | Pos
CN(C)CCOC(c1ccccc1)c1ccccc1 [Diphenhydramine] | NLCT | S (Min %; suppression ≥35: Suppression (denoted as “S”; determined to have immunosuppressive action)) | Pos
COc1cc([C@@H]2c3cc4c(cc3[C@@H](O[C@@H]3O[C@@H]5CO[C@@H](C)O[C@H]5[C@H](O)[C@H]3O)[C@H]3COC(=O)[C@H]23)OCO4)cc(OC)c1O [Etoposide] | – | N (−35<Min % suppression <35: No Effect (denoted as “N”; determined to not affect immunity)) | Pos
COc1ccc2c(c1)c(CC(=O)O)c(C)n2C(=O)c1ccc(Cl)cc1 [Indomethacin] | – | S (Min %; suppression ≥35: Suppression (denoted as “S”; determined to have immunosuppressive action)) | Pos
O=C(O)c1cc(/N=N/c2ccc(S(=O)(=O)Nc3ccccn3)cc2)ccc1O [Sulfasalazine (SASP), Sulfasalazine] | – | S (Min %; suppression ≥35: Suppression (denoted as “S”; determined to have immunosuppressive action)) | Pos
